In general, inhibition refers to the change of the read-out against control, counted positive when it falls. Read a high inhibition as strong suppression. As a reminder, the pIC50 is the negative decadic logarithm of the IC50, by convention in mol/L.

pIC50: −log10 of the molar value.

Here are results for four molecules from ChEMBL document CHEMBL5356974, “Development of MPS1 Inhibitors: Recent Advances and Perspectives” (J Med Chem, 2023).

Test [1] concerns the target T1, Dual specificity protein kinase TTK (Homo sapiens) (UniProt P33981).
T1 sequence (whole entry): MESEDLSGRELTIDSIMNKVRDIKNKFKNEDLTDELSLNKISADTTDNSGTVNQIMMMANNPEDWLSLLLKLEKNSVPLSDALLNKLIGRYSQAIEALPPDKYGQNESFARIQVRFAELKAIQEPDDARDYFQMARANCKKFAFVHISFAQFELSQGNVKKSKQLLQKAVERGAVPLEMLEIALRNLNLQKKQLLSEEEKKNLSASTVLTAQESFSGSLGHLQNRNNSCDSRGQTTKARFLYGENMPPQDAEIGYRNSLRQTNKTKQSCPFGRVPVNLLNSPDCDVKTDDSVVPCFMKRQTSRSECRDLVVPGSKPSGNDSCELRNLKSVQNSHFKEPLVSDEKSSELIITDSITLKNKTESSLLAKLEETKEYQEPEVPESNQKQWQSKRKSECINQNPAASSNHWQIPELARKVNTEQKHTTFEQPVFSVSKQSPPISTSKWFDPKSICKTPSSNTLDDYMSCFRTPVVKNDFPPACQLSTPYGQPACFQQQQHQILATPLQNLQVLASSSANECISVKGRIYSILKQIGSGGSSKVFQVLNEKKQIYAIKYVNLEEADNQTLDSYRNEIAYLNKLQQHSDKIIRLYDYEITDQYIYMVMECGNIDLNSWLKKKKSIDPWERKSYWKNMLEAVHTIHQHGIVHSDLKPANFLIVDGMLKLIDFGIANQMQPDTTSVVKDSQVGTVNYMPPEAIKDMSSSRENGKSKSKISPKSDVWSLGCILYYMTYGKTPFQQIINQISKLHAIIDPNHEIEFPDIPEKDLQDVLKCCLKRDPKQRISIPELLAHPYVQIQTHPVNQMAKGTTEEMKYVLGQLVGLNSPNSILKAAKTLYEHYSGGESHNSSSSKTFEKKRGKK
The following applies: dose 100.0 nM.

Test [2] has as its target T2, Serine/threonine-protein kinase NLK (Homo sapiens) (UniProt Q9UBE8).
T2 sequence (whole entry): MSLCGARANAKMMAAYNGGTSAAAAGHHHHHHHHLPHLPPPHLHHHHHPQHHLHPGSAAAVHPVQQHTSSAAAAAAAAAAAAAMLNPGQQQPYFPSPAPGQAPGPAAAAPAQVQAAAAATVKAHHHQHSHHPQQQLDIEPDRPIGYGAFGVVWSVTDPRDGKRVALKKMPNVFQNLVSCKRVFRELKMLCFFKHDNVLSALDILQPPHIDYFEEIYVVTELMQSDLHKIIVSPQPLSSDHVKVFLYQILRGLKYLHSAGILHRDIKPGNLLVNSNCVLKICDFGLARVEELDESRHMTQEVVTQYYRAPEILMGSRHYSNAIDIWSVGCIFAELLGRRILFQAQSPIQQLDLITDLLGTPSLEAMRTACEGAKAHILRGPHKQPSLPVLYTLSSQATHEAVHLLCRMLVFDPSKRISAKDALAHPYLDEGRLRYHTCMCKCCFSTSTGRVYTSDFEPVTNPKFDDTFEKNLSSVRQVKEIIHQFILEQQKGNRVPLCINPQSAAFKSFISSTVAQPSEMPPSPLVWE
Briefly: Inhibition of NLK (unknown origin) relative to control. The settings on record: concentration not given here.

Test [3] has as its target Mitogen-activated protein kinase 9 (Homo sapiens) (UniProt P45984). Briefly: Inhibition of JNK2 (unknown origin) relative to control. The following applies: concentration not given here.
In test [4] the target is Mitogen-activated protein kinase 10 (Homo sapiens) (UniProt P53779). As to the kind of experiment: Inhibition of JNK3 (unknown origin) relative to control. The following applies: concentration not given here.
Mitogen-activated protein kinase 10 (Homo sapiens), sequence (P53779 whole entry): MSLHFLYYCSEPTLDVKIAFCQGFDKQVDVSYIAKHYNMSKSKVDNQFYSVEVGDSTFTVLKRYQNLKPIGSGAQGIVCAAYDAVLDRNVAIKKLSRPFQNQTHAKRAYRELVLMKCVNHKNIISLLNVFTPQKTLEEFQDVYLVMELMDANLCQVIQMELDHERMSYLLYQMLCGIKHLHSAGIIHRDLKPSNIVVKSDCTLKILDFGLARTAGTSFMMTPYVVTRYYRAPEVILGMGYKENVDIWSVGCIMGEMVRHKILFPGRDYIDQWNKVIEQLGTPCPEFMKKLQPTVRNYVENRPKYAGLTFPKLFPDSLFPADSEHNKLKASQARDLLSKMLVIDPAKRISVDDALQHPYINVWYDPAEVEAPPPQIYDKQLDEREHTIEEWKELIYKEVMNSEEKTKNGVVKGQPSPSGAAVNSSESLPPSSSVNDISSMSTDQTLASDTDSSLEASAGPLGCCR
Test [5] has as its target T3, Dual specificity protein kinase TTK (Homo sapiens, UniProt P33981).
T3 sequence (P33981 whole entry): T1 sequence (whole entry)
Briefly: Inhibition of full-length MPS1 (unknown origin) using fluorescein-labeled MBP-derived peptide as substrate preincubated for 1 hr followed by substrate addition measured after 2 hrs in presence of ATP by FP assay.

Mitogen-activated protein kinase 9 (Homo sapiens), sequence (P45984 whole entry, looked up): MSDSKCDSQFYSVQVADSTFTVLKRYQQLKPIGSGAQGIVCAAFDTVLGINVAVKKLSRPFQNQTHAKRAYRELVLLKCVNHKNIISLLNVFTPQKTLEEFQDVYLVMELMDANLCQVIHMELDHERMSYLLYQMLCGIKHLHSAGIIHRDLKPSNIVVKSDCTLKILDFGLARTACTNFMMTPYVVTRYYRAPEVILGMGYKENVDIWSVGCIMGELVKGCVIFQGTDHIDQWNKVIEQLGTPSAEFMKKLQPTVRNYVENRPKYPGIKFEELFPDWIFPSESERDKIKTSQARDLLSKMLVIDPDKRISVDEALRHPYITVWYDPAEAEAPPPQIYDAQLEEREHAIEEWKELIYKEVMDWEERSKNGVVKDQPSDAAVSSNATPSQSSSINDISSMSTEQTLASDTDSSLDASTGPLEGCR

As to `CCc1nn(CCOCCOC)c(CC)c1NC(=O)c1ccn2c1CCc1cnc(Nc3ccc(N4CCN(C)CC4)cc3OC)nc1-2`, in test [1], the inhibition was greater than 90%.

`Cn1cc(-c2cc3cnc(Nc4ccc(-c5cncn5C)cc4Cl)cc3n2C(=O)OC(C)(C)C)cn1`: the inhibition in test [2], in test [3] and in test [4] was 80% throughout.

In the case of `CN1CCC(c2ccc(Nc3ncc4c(n3)-n3ccc(C(N)=O)c3CC4)cc2)CC1`, the negative-log IC50 (pIC50) in test [5] is 8.12.

With `CCc1n[nH]c(CC)c1NC(=O)c1ccn2c1CCc1cnc(Nc3ccc(N4CCN(C)CC4)cc3OC)nc1-2`, the pIC50 in test [5] was 8.92. For the same molecule, in test [1], the inhibition was greater than 90%.
